Results taken from patent US20230180809A1, “NUTRACEUTIC COMPOSITION COMPRISING LIMONENE AND A DRY EXTRACT OF COCOA FIBRE FOR THE TREATMENT OF OBESITY” (TARGETING GUT DISEASE SRL, priority 2020, published 2023).

Tested on: obese mice
Assay: slimming effect of limonene in obese mice
Assay type: in vivo
Details: obese mice after 12 weeks of high lipid diet, feed containing 0.5% of limonene ad libitum for 2 weeks
Method: Animal feed having a concentration of 0.5% in limonene corresponding to a daily dose of 0.6 g/kg of weight in humans. After 12 weeks of high lipid diet that caused obesity, mice were administered ad libitum, animal feed containing 0.5% of limonene for 2 weeks.

C=C(C)[C@H]1CC=C(C)CC1 [limonene]
accumulation of lipids in the cells: preventing the accumulation of lipids
reduction of serum triglycerides: up to 47%
size of both white and brown adipocytes: decreasing the size
